Measured values: patent US6610674B1, “Method of treating inflammatory conditions with progesterone analogs” (University of Pennsylvania, priority 1999, dated 2003)
“And” between values parts separate entries of the source, which are not always exact repeats. Equal entries are not always repeated.

Columns and labels:
[1] = test system: lymphocytes infiltrating the large bowel lamina propria; experiment: scid mouse model of Inflammatory Bowel Disease: lymphocytes infiltrating the large bowel lamina propria; assay type: in vivo, scid C.B.-17 mice; conditions: for effect on lymphocyte infiltration into the bowel (in words): compared to buffer control; for effect on lymphocyte infiltration into the bowel (in words) / CD4+ Lymphocytes, Average / CD4+ as a percent of total Lymphocytes, Average / Total Lymphocytes, Average: 25 mg/kg orally each day; for CD4+ Lymphocytes, Average / CD4+ as a percent of total Lymphocytes, Average / Total Lymphocytes, Average: group average; for CD4+ Lymphocytes / CD4+ as a percent of total Lymphocytes / Total Lymphocytes: individual mouse, 25 mg/kg orally each day until sacrifice, lamina propria, 25 mg/kg
From the text: The scid (severe combined immunodeficient) C.B.-17 line of mice provide an effective model of Inflammatory Bowel Disease. The disease state in these mice is triggered by the intraperitoneal injection of CD4+ T cells from a normal BALB/C mouse. The induced disease is characterized by intestinal inflammation in the large intestine, leukocytic infiltrates into the mucosa, submucosa, and mucularis, epithelial cell hyperplasia, loss of mucin-secreting cells, and ulcers with deep fissures, and diarrhea. In the mouse model, CD4+ T cells and macrophages infiltrate the bowel. The scid mouse is recognized by the art as a model for IBD. Powrie et al., Inhibition of Th1 Responses Prevents Inflammatory Bowel Disease in scid Mice Reconstituted with CD45RBhi CD4+ T Cells, Immunity 1:553-562 (1994).
500,000 to 1×10^6 T cells derived from the lymph nodes of normal BALB/C mice were injected intraperitoneally into scid mice 6 weeks prior to sacrifice. 2 days before lymphocyte administration, treatment of the scid mice began with buffer control, medroxyprogesterone acetate, or 17-hydroxyprogesterone. The treatment mice (5 in each group) received 25 mg/kg of drug orally each day until sacrifice.
After sacrifice, lamina propria (bowel wall) lymphocytes were isolated from each animal. The total number of lymphocytes, number of CD4+ lymphocytes, and the percent of CD4+ lymphocytes was determined. CD4+ lymphocytes were identified by using a first antibody directed to CD4, and a second antibody directed to the first antibody. The second antibody was tagged with fluorescein, which lights up as green in a flow cytometer, identifying which lymphocytes are the CD4+ form. Lymphocyte infiltration into the bowel is a predictor of the progress of the disease because lymphocytes are involved in the inflammatory response leading to damage of the bowel wall.

[2] = test system: Patients with mild to moderate ulcerative colitis; experiment: Treatment of patients with ulcerative colitis (Disease Activity Index); assay type: in vivo, human
Description: (§1) Patients with mild to moderate ulcerative colitis were evaluated for their response to treatment with medroxyprogesterone acetate. Patients in the treatment group (8 patients) received a loading dose of 1 gram of medroxyprogesterone acetate every 6 hours for 8 doses. These patients were then given 500 mg of medroxyprogesterone every 12 hours for 8 weeks.
Disease improvement was measured using the Disease Activity Index (DAI). The DAI is a total score for stool frequency, blood in the stool, the investigator's global assessment (IGA), and the physician's evaluation of the appearance of mucosa during flexible sigmoidoscopy of the colon.

[3] = test system: TNF-α release from macrophages; experiment: TNF-α release (ELISA) from spleen macrophages of treated mice; assay type: cell-based, mouse
Description: The spleens of six of the mice from Example 1 were removed after the animals were sacrificed. Macrophages were isolated from the spleen of the medroxyprogesterone acetate or buffer control treated mice. TNF-α release from these macrophages was measured by ELISA following stimulation with either (1) rat anti-mouse macrophage Fc receptor antibody 2.4G2 and F(ab′)2 IgG goat anti-rat antibody, or (2) phorbol myristate acetate (“PMA”), a phorbol ester. The effect of medroxyprogesterone acetate on TNF-α release is illustrated in Table 2.

[4] = test system: Patients with mild to moderate Crohn's disease; experiment: Treatment of patients with Crohn's disease (CDAI); assay type: in vivo, human
Description: as §1, with “moderate Crohn's disease” for “moderate ulcerative colitis”, “with […]” for “with medroxyprogesterone”, “group (12” for “group (8”, “patients) recieved” for “patients) received”
Disease improvement was measured using the Crohn's Disease Activity Index (CDAI). The CDAI score for a patient was calculated by multiplying the numerical value for each variable by multiplication factor indicated for that variable, and totaling all of the resultant values, as shown in Table 5. A score below 150 indicated remission and a score above 450 indicated severe disease. In order to enter the study, patients were required to have a total CDAI score of 200 to 400 at baseline.
Disease remission was defined as a CDAI score of 150 or below. Disease response was defined as either a decrease of 70 or greater in the CDAI or disease remission.

[5] = test system: IL-6 release from macrophages; experiment: IL-6 release (ELISA) from spleen macrophages of treated mice; assay type: cell-based, mouse
Description: The spleens of four of the mice from Example 1 were removed after the animals were sacrificed. Macrophages were isolated from the spleen of the medroxyprogesterone acetate or buffer control treated mice. IL-6 release from these macrophages was measured by ELISA following stimulation with rat anti-mouse macrophage Fc receptor antibody 2.4G2 and F(ab′)2 IgG goat anti-rat antibody. The effect of medroxyprogesterone acetate on IL-6 release is illustrated in Table 3.

[6] = individual mouse, stimulation 2.4G2 and F(ab′)2 IgG anti-rat, listed as MPA

What does the source list for `CC(=O)[C@@]1(O)CC[C@H]2[C@@H]3CCC4=CC(=O)CC[C@]4(C)[C@H]3CC[C@@]21C` [17-hydroxyprogesterone]?
effect on lymphocyte infiltration into the bowel (in words) [1]: did not work in treating the mice; CD4+ Lymphocytes, Average [1]: 16.3 1 × 106; CD4+ as a percent of total Lymphocytes, Average [1]: 88.0%; Total Lymphocytes, Average [1]: 18.4 1 × 106; CD4+ Lymphocytes [1]: 8.9 1 × 106 and 1.6 1 × 106 and 15 1 × 106 and 23 1 × 106; CD4+ as a percent of total Lymphocytes [1]: 89% and 81% and 93% and 91%; Total Lymphocytes [1]: 10 1 × 106 and 2 1 × 106 and 16.5 1 × 106 and 25.2 1 × 106

`CC(=O)O[C@]1(C(C)=O)CC[C@H]2[C@@H]3C[C@H](C)C4=CC(=O)CC[C@]4(C)[C@H]3CC[C@@]21C` [Medroxyprogesterone Acetate, pregn-4-ene-3,20-dione, 17-(acetyloxy)-6-methyl-, (6α)-] was tested. Which “patients showing improvement with treatment” value ([2]; 8 weeks, 8 patients) did it give?
The value was “Five out of eight”.

What about the “Improvement (reduction of one or more units in DAI score at end of study vs baseline)” value ([2]; individual patient, 1 g every 6 hours for 8 doses, then 500 mg every 12 hours for 8 weeks) of the same compound?
Its value is “Yes (5×) and No (3×)”.

What about the “non-responders with reduction in symptoms and complaints during initial treatment” value ([2]; of the 3 patients who did not respond at end of 8 week study) of the same compound?
Its value is 2 patients.

What about the “TNF-α Measurement” value [3, 6] of the same compound?
The value was 2314 pg/mL and 27563 pg/mL and 1843 pg/mL.

What about the “TNF-α Repeat Measurement” value [3, 6] of the same compound?
Its value is 1026 pg/mL and 0 pg/mL.

What about the “TNF-α Repeat Measurement” value ([3]; individual mouse, stimulation PMA for Repeat Measurement) of the same compound?
The value was 0 pg/mL.

What about the “effect on TNF-α release from macrophages (in words)” value ([3]; macrophages from treated mice) of the same compound?
The value was “may be inhibiting TNF-α release from macrophages”.

And the “adverse event leading to drop out” value ([4]; 12 patients treated)?
Its value is “One patient dropped out for a minor adverse event (fatigue)”.

And the “Remissions (CDAI score of 150 or below)” value ([4]; Completers (10 patients), 8 weeks)?
Its value is 7.

And the “IL-6 Measurement” value [5, 6]?
Its value is 298,940 and 266,557.

And the “effect on IL-6 release from macrophages (in words)” value ([5]; macrophages from treated mice)?
The value was “may be inhibiting IL-6 release from macrophages”.

What about the “effect on lymphocyte infiltration into the bowel (in words)” value [1] of the same compound?
Its value is “effective in decreasing lymphocyte infiltration into the bowel”.

And the “CD4+ Lymphocytes, Average” value [1]?
Its value is 3.8 1 × 106.

And the “CD4+ as a percent of total Lymphocytes, Average” value [1]?
The value was 81.4%.

And the “Total Lymphocytes, Average” value [1]?
Its value is 4.5 1 × 106.

What about the “CD4+ Lymphocytes” value [1] of the same compound?
The value was 1.6 1 × 106 and 4.1 1 × 106 and 1.3 1 × 106 and 3.0 1 × 106 and 9.2 1 × 106.

And the “CD4+ as a percent of total Lymphocytes” value [1]?
The value was 81% and 87% and 65% and 83% and 91%.

What about the “Total Lymphocytes” value [1] of the same compound?
The value was 2 1 × 106 (2×) and 4.8 1 × 106 and 3.6 1 × 106 and 10.2 1 × 106.
